Measured values from patent US11000033B2, “Ketone or oxime compound, and herbicide” (NISSAN CHEMICAL CORPORATION, priority 2014, dated 2021).

Tests used:
Assay type in all cases: in vivo
Digitaria ciliaris = assay: Test Example 5: herbicidal effect by foliage application, plastic box (symbol F); details: 320 g/ha, 3 weeks after application
Summary of the method: (§1)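 Herbicide, formulated as an emulsion and diluted in water, is sprayed onto the aerial parts of 14-day seedlings. These were grown at 25° C. to 30° C. in sterilized diluvial soil; effects are graded after 3 weeks.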

Abutilon theophrasti = assay: Test Example 4: herbicidal effect by soil treatment (symbol M); details: application herbicide amount 320 g/ha
Summary of the method: (§2)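 Seeds were sown in sterilized diluvial soil, covered with about 1.5 cm of soil, and the soil surface was sprayed with a water-diluted emulsion of the compound at a predetermined rate. Plants grew in a greenhouse at 25° C. to 30° C.; effects were scored visually 3 weeks after application.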

Avena fatua = assay: Test Example 4: herbicidal effect by soil treatment (symbol I); details: application herbicide amount 320 g/ha
Summary of the method: as §2

rapeseed = assay: Test Example 5: effect on crop by foliage application, plastic box (symbol g); details: 320 g/ha, 3 weeks after application
Summary of the method: (§3)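 Diluvial soil, sterilized and boxed (21 × 13 × 7 cm), received spot-sown seed covered by about 1.5 cm soil; plants were then greenhouse-grown at 25–30° C.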

wheat = assay: Test Example 4: effect on crop by soil treatment (symbol e); details: application herbicide amount 320 g/ha
Summary of the method: (§4)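 Soil-treatment setup: crop and weed seeds were spot-sown into sterilized diluvial soil, then buried beneath approximately 1.5 cm of it, and the boxes were housed in a 25–30° C. greenhouse.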

Amaranthus retroflexus = assay: Test Example 5: herbicidal effect by foliage application, plastic box (symbol N); details: 320 g/ha, 3 weeks after application
Summary of the method: as §1

transplanted rice plant = assay: Test Example 1: effect on crop, application before weed generation in submerged conditions (symbol a); details: application herbicide amount 320 g/ha
Summary of the method: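 Rice at 2.5 leaf stage transplanted into submerged soil (4 cm depth) sown with three weed species; herbicide applied before weed emergence.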

corn = assay: Test Example 5: effect on crop by foliage application, plastic box (symbol c); details: 320 g/ha, 3 weeks after application
Summary of the method: as §3

Monochoria vaginalis = assay: Test Example 2: herbicidal activity, application during weed generation in submerged conditions (symbol C); details: Table 23; application herbicide amount 320 g/ha; grade 0-5 by criteria of Test Example 1
Summary of the method: (§5)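 Flooded-soil post-emergence test: emulsion of compound, water-diluted to target rate, applied to paddy water surface at 1–2 leaf stage of mixed-sown weeds (alluvial soil, 4 cm water, 25–30° C. greenhouse); visual rating 3 weeks after application.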

rice = assay: Test Example 4: effect on crop by soil treatment (symbol b); details: application herbicide amount 320 g/ha
Summary of the method: as §4

[1] = tested on: Echinochloa crus-galli var. crus-galli; assay: Test Example 4: herbicidal effect by soil treatment (symbol H); details: application herbicide amount 320 g/ha
Summary of the method: as §2

[2] = tested on: Echinochloa crus-galli var. crus-galli; assay: Test Example 5: herbicidal effect by foliage application, plastic box (symbol H); details: 320 g/ha, 3 weeks after application
Summary of the method: as §1

soybean [3] = assay: Test Example 4: effect on crop by soil treatment (symbol d); details: application herbicide amount 320 g/ha
Summary of the method: as §4

beet = assay: Test Example 4: effect on crop by soil treatment (symbol f); details: application herbicide amount 320 g/ha
Summary of the method: as §4

Scirpus juncoides = assay: Test Example 2: herbicidal activity, application during weed generation in submerged conditions (symbol B); details: Table 23; application herbicide amount 320 g/ha; grade 0-5 by criteria of Test Example 1
Summary of the method: as §5

Veronica persica = assay: Test Example 5: herbicidal effect by foliage application, plastic box (symbol R); details: 320 g/ha, 3 weeks after application
Summary of the method: as §1

Lolium multiflorum Lam. [4] = assay: Test Example 5: herbicidal effect by foliage application, plastic box (symbol K); details: 320 g/ha, 3 weeks after application
Summary of the method: as §1

Lolium multiflorum Lam. [5] = assay: Test Example 4: herbicidal effect by soil treatment (symbol K); details: application herbicide amount 320 g/ha
Summary of the method: as §2

soybean [6] = assay: Test Example 5: effect on crop by foliage application, plastic box (symbol d); details: 320 g/ha, 3 weeks after application
Summary of the method: as §3

Row | Compound | F: Digitaria ciliaris, herbicidal effect grade (Digitaria ciliaris) | M (Abutilon theophrasti) herbicidal effect grade (Abutilon theophrasti) | I (Avena fatua) herbicidal effect grade (Avena fatua) | g: rapeseed, effect on crop grade (rapeseed) | e (wheat) effect on crop grade (wheat) | N: Amaranthus retroflexus, herbicidal effect grade (Amaranthus retroflexus) | Effect grade on crop, a: transplanted rice plant (transplanted rice plant) | c: corn, effect on crop grade (corn) | Herbicidal effect grade, C: Monochoria vaginalis (Monochoria vaginalis) | b (directly sowed rice plant) effect on crop grade (rice) | H (Echinochloa crus-galli var. crus-galli) herbicidal effect grade [1] | H: Echinochloa crus-galli var. crus-galli, herbicidal effect grade [2] | d (soybean) effect on crop grade (soybean [3]) | f (beet) effect on crop grade (beet) | Herbicidal effect grade, B: Scirpus juncoides (Scirpus juncoides) | R: Veronica persica, herbicidal effect grade (Veronica persica) | K: Lolium multiflorum Lam., herbicidal effect grade (Lolium multiflorum Lam. [4]) | K (Lolium multiflorum Lam.) herbicidal effect grade (Lolium multiflorum Lam. [5]) | d: soybean, effect on crop grade (soybean [6])
1 | CON=C(CC1CC(O)=C(c2c(C)cc(C)cc2C)C1=O)c1ccccn1 (stereo not shown) [1-045] | 4 (Herbicidal ratio of 70% or higher and lower than 90%) | 0 (Herbicidal ratio of 5% or lower (almost no effect)) | 0 (Herbicidal ratio of 5% or lower (almost no effect)) | 2 (Herbicidal ratio of 20% or higher and lower than 40%) | 0 (Herbicidal ratio of 5% or lower (almost no effect)) | 0 (Herbicidal ratio of 5% or lower (almost no effect)) | 3 (Herbicidal ratio of 40% or higher and lower than 70%) | 3 (Herbicidal ratio of 40% or higher and lower than 70%) | 0 (Herbicidal ratio of 5% or lower (almost no effect)) | 0 (Herbicidal ratio of 5% or lower (almost no effect)) | 0 (Herbicidal ratio of 5% or lower (almost no effect)) | 5 (Herbicidal ratio of 90% or more (almost completely withered)) | 0 (Herbicidal ratio of 5% or lower (almost no effect)) | 0 (Herbicidal ratio of 5% or lower (almost no effect)) | 0 (Herbicidal ratio of 5% or lower (almost no effect)) | 0 (Herbicidal ratio of 5% or lower (almost no effect)) | 5 (Herbicidal ratio of 90% or more (almost completely withered)) | 4 (Herbicidal ratio of 70% or higher and lower than 90%) | 1 (Herbicidal ratio of 5% or higher and lower than 20%)
2 | CON=C(CC1CC(O)=C(c2c(C)cc(C)cc2C)C1=O)C1CC1 (stereo not shown) [1-046] | 4 (Herbicidal ratio of 70% or higher and lower than 90%) | 4 (Herbicidal ratio of 70% or higher and lower than 90%) | 5 (Herbicidal ratio of 90% or more (almost completely withered)) | 4 (Herbicidal ratio of 70% or higher and lower than 90%) | 4 (Herbicidal ratio of 70% or higher and lower than 90%) | 2 (Herbicidal ratio of 20% or higher and lower than 40%) | 5 (Herbicidal ratio of 90% or more (almost completely withered)) | 5 (Herbicidal ratio of 90% or more (almost completely withered)) | 3 (Herbicidal ratio of 40% or higher and lower than 70%) | 5 (Herbicidal ratio of 90% or more (almost completely withered)) | 5 (Herbicidal ratio of 90% or more (almost completely withered)) | 5 (Herbicidal ratio of 90% or more (almost completely withered)) | 0 (Herbicidal ratio of 5% or lower (almost no effect)) | 0 (Herbicidal ratio of 5% or lower (almost no effect)) | 5 (Herbicidal ratio of 90% or more (almost completely withered)) | 4 (Herbicidal ratio of 70% or higher and lower than 90%) | 5 (Herbicidal ratio of 90% or more (almost completely withered)) | 5 (Herbicidal ratio of 90% or more (almost completely withered)) | 3 (Herbicidal ratio of 40% or higher and lower than 70%)
3 | CON=C(CC1CC(O)=C(c2c(C)cc(C)cc2C)C1=O)c1ccccc1 (stereo not shown) [1-047] | 1 (Herbicidal ratio of 5% or higher and lower than 20%) | 0 (Herbicidal ratio of 5% or lower (almost no effect)) | 0 (Herbicidal ratio of 5% or lower (almost no effect)) | 3 (Herbicidal ratio of 40% or higher and lower than 70%) | 0 (Herbicidal ratio of 5% or lower (almost no effect)) | 0 (Herbicidal ratio of 5% or lower (almost no effect)) | 1 (Herbicidal ratio of 5% or higher and lower than 20%) | 0 (Herbicidal ratio of 5% or lower (almost no effect)) | 0 (Herbicidal ratio of 5% or lower (almost no effect)) | 4 (Herbicidal ratio of 70% or higher and lower than 90%) | 3 (Herbicidal ratio of 40% or higher and lower than 70%) | 3 (Herbicidal ratio of 40% or higher and lower than 70%) | 0 (Herbicidal ratio of 5% or lower (almost no effect)) | 0 (Herbicidal ratio of 5% or lower (almost no effect)) | 0 (Herbicidal ratio of 5% or lower (almost no effect)) | 0 (Herbicidal ratio of 5% or lower (almost no effect)) | 4 (Herbicidal ratio of 70% or higher and lower than 90%) | 3 (Herbicidal ratio of 40% or higher and lower than 70%) | 0 (Herbicidal ratio of 5% or lower (almost no effect))
4 | CON=C(CC1CC(O)=C(c2c(C)cc(C)cc2C)C1=O)C(C)C (stereo not shown) [1-048] | 4 (Herbicidal ratio of 70% or higher and lower than 90%) | 3 (Herbicidal ratio of 40% or higher and lower than 70%) | 1 (Herbicidal ratio of 5% or higher and lower than 20%) | 3 (Herbicidal ratio of 40% or higher and lower than 70%) | 2 (Herbicidal ratio of 20% or higher and lower than 40%) | 1 (Herbicidal ratio of 5% or higher and lower than 20%) | 5 (Herbicidal ratio of 90% or more (almost completely withered)) | 4 (Herbicidal ratio of 70% or higher and lower than 90%) | 2 (Herbicidal ratio of 20% or higher and lower than 40%) | 5 (Herbicidal ratio of 90% or more (almost completely withered)) | 5 (Herbicidal ratio of 90% or more (almost completely withered)) | 5 (Herbicidal ratio of 90% or more (almost completely withered)) | 0 (Herbicidal ratio of 5% or lower (almost no effect)) | 0 (Herbicidal ratio of 5% or lower (almost no effect)) | 4 (Herbicidal ratio of 70% or higher and lower than 90%) | 3 (Herbicidal ratio of 40% or higher and lower than 70%) | 5 (Herbicidal ratio of 90% or more (almost completely withered)) | 5 (Herbicidal ratio of 90% or more (almost completely withered)) | 0 (Herbicidal ratio of 5% or lower (almost no effect))
